# Test results published in article PMC8445441, “Elucidating the mechanism by which synthetic helper peptides sensitize Pseudomonas aeruginosa to multiple antibiotics” (PLoS Pathogens, 2021).
# Like-named read-outs stand apart in the source and are kept apart here. Non-standard residues stand in square brackets, D forms with d. Residues, ends and D or L forms follow the SMILES beside them. No end group written: not given here. *: point of attachment. βNA = c1ccc2cc(N*)ccc2c1
# Tests used:
# P. aeruginosa PAO1 = assay: microbe, parasite or virus in culture
# Experimental: (§1) The MIC tests were performed in triplicate using broth microdilution in accordance with Clinical and Laboratory Standards Institute (CLSI) recommendations (http://iacld.ir/DL/public/CLSI-2018-M100-S28.pdf). Briefly, drugs were two-fold diluted in MHB and mixed with an equal volume of bacterial suspensions containing approximately 1 × 10^6 CFU/mL in 96-well microliter plate. After 18 h incubation at 37 °C, the MIC values were defined as the lowest concentrations of antibiotics with no visible growth of bacteria. […] Otherwise, 1/4 MIC of the peptide was used in the combination. […] If needed, membrane compounds PG, PE, PC, CL or LPS, or membrane stabilizers MgCl2 or CaCl2, or efflux pumps inhibitor PAβN were added to the broth medium to clarify the effect of other substances on the synergy between peptide and antibiotics. All the tests were performed in triplicate.
# The fractional inhibitory concentration (FIC) indices were calculated using the previously described formula FICI = FICa + FICb = MICac/MICa + MICbc/MICb. The FICI was interpreted according to EUCAST [65] as follows: synergistic, FICI≤0.5; additive, 0.5<FICI≤1; indifferent, 1<FICI<2; antagonistic, FICI ≥2. For the FICI calculations, twice the highest concentration tested was used in the cases where the MIC was not reached.
# [1] = test system: clinical P. aeruginosa isolates; assay: microbe, parasite or virus in culture; settings: Pseudomonas aeruginosa, 18 h, antibiotic alone
# Experimental: The bacterial strains, primers and plasmids used in this study are listed in S5 Table. […] Bacteria were cultured in LB medium or cation-adjusted Muller-Hinton broth (CA-MHB) at 37 °C with agitation at 220 rpm. All the antibiotics and chemical compounds used in this study were purchased from Sigma-Aldrich.
# as §1
# [2] = PAO1, peptide + Azithromycin, higher peptide concentration line
# [3] = PAO1, peptide + Azithromycin, lower peptide concentration line
# [4] = PAO1, peptide + Clarithromycin, higher peptide concentration line
# [5] = PAO1, peptide + Clarithromycin, lower peptide concentration line
# [6] = PAO1, peptide + Erythromycin, higher peptide concentration line
# [7] = PAO1, peptide + Erythromycin, lower peptide concentration line
# [8] = PAO1, peptide + Spiramycin, higher peptide concentration line
# [9] = PAO1, peptide + Spiramycin, lower peptide concentration line
# [10] = PAO1, peptide + Telithromycin, higher peptide concentration line
# [11] = PAO1, peptide + Telithromycin, lower peptide concentration line
# [12] = PAO1, peptide + azithromycin, twice the highest concentration used where MIC not reached
# [13] = peptide alone, PAO1, broth microdilution in MHB, 18 h, 37 °C, triplicate
compound,measurement,setting,value
CC[C@@H](C)[C@@H](NC(=O)[C@H](N)CCCNC(=N)N)C(=O)N[C@@H](C(=O)N[C@H](CCC(N)=O)C(=O)N[C@H](CCCNC(=N)N)C(=O)N[C@@H](C(=O)N[C@H](CCCNC(=N)N)C(=O)N[C@H](CCCNC(=N)N)C(=O)N[C@H](Cc1c[nH]c2ccccc12)C(=O)N[C@H](CC(C)C)C(=O)N[C@H](CCCNC(=N)N)C(N)=O)[C@H](C)CC)C(C)C [D-11-k(r)] (H-[dR][dI][dV][dQ][dR][dI][dR][dR][dW][dL][dR]-NH2),FICI,P. aeruginosa PAO1; [2],0.156
same,FICI,P. aeruginosa PAO1; [3],0.188
same,FICI,P. aeruginosa PAO1; [4],0.156
same,FICI,P. aeruginosa PAO1; [5],0.125
same,FICI,P. aeruginosa PAO1; [6],0.188
same,FICI,P. aeruginosa PAO1; [7],0.188
same,FICI,P. aeruginosa PAO1; [8],1.125
same,FICI,P. aeruginosa PAO1; [9],1.063
same,FICI,P. aeruginosa PAO1; [10],0.188
same,FICI,P. aeruginosa PAO1; [11],0.188
same,FICI,P. aeruginosa PAO1; [12],0.156
same,MICb: the MIC of the peptide,"P. aeruginosa PAO1; S1 Table, peptide alone, PAO1",64 µM
CC[C@@H](C)[C@@H](NC(=O)[C@@H](CCCNC(=N)N)NC(=O)[C@@H](CCCNC(=N)N)NC(=O)[C@@H](Cc1ccccc1)NC(=O)[C@@H](CC(C)C)NC(=O)[C@@H](CCCNC(=N)N)NC(=O)[C@H](N)CCCNC(=N)N)C(=O)N[C@H](CC(C)C)C(=O)N[C@H](CCCNC(=N)N)C(=O)N[C@H](Cc1c[nH]c2ccccc12)C(=O)N[C@H](CC(C)C)C(N)=O [D-RW-BP100] (H-[dR][dR][dL][dF][dR][dR][dI][dL][dR][dW][dL]-NH2),FICI,P. aeruginosa PAO1; [12],1.250
same,MICb: the MIC of the peptide,P. aeruginosa PAO1; [13],8 µM
CC[C@H](C)[C@H](NC(=O)[C@H](CCCCN)NC(=O)[C@H](CCC(=O)O)NC(=O)[C@H](CCCCN)NC(=O)[C@H](CO)NC(=O)[C@H](CCCCN)NC(=O)[C@H](CCCNC(=N)N)NC(=O)[C@H](Cc1ccccc1)NC(=O)[C@H](Cc1ccccc1)NC(=O)[C@H](CC(=O)O)NC(=O)CNC(=O)[C@H](CC(C)C)NC(=O)[C@@H](N)CC(C)C)C(=O)NCC(=O)N[C@@H](CCCCN)C(=O)N[C@@H](CCC(=O)O)C(=O)N[C@@H](Cc1ccccc1)C(=O)N[C@@H](CCCCN)C(=O)N[C@@H](CCCNC(=N)N)C(=O)N[C@H](C(=O)N[C@H](C(=O)N[C@@H](CCC(N)=O)C(=O)N[C@@H](CCCNC(=N)N)C(=O)N[C@H](C(=O)N[C@@H](CCCCN)C(=O)N[C@@H](CC(=O)O)C(=O)N[C@@H](Cc1ccccc1)C(=O)N[C@@H](CC(C)C)C(=O)N[C@@H](CCCNC(=N)N)C(=O)N[C@@H](CC(N)=O)C(=O)N[C@@H](CC(C)C)C(=O)N[C@H](C(=O)N1CCC[C@H]1C(=O)N[C@@H](CCCNC(=N)N)C(=O)N[C@H](C(=O)N[C@@H](CCC(=O)O)C(=O)N[C@@H](CO)C(=O)O)[C@@H](C)O)C(C)C)[C@@H](C)CC)C(C)C)[C@@H](C)CC [LL-37],FICI,P. aeruginosa PAO1; [12],0.75
VDKGSYLPRPTPPRPIYNRN-NH2 [Pyrrhocoricin],FICI,P. aeruginosa PAO1; [12],1.125
same,MICb: the MIC of the peptide,P. aeruginosa PAO1; [13],> 32 µM
CC[C@@H](C)[C@@H](NC(=O)[C@@H](CCCCN)NC(=O)[C@@H](CCCCN)NC(=O)[C@@H](Cc1c[nH]c2ccccc12)NC(=O)[C@@H](CC(C)C)NC(=O)[C@H](N)CCCNC(=N)N)C(=O)N[C@H](CCCNC(=N)N)C(=O)N[C@H](CCC(N)=O)C(=O)N[C@@H](C(=O)N[C@@H](C(=O)N[C@H](CCCNC(=N)N)C(=O)N[C@H](CCCCN)C(N)=O)[C@H](C)CC)C(C)C [Peptide D-11R] (H-[dR][dL][dW][dK][dK][dI][dR][dQ][dV][dI][dR][dK]-NH2),MICb: the MIC of the peptide,"P. aeruginosa PAO1; PAO1, 18 h",32 µM
NC(N)=NCCC[C@H](NC(=O)[C@@H](N)Cc1ccccc1)C(=O)Nc1ccc2ccccc2c1 [PAβN] (H-Phe-Arg-βNA),reduction of the MIC of azithromycin by PAβN,"P. aeruginosa PAO1; PAO1, in the absence of D-11",64 fold
same,reduction of the MIC of azithromycin by PAβN,"P. aeruginosa PAO1; PAO1, in the presence of D-11, higher concentration of PAβN",two
CN(C)[C@@H]1C(O)=C(C(N)=O)C(=O)[C@@]2(O)C(O)=C3C(=O)c4c(O)cccc4[C@@](C)(O)[C@H]3C[C@@H]12 [Tetracycline],MIC,"[1]; read-out: Antibiotic sensibility (MIC) of clinical P. aeruginosa isolate AUMC-Pa-2, strain AUMC-Pa-2",64 µM
same,MIC,"[1]; read-out: Antibiotic sensibility (MIC) of clinical P. aeruginosa isolate AUMC-Pa-3, strain AUMC-Pa-3",64 µM
same,MIC,"[1]; read-out: Antibiotic sensibility (MIC) of clinical P. aeruginosa isolate AUMC-Pa-5, strain AUMC-Pa-5",64 µM
same,MIC,"[1]; read-out: Antibiotic sensibility (MIC) of clinical P. aeruginosa isolate AUMC-Pa-6, strain AUMC-Pa-6",64 µM
same,MIC,"[1]; read-out: Antibiotic sensibility (MIC) of clinical P. aeruginosa isolate HM-214, strain HM-214",64 µM
same,MIC,"[1]; read-out: Antibiotic sensibility (MIC) of clinical P. aeruginosa isolate NR-31040, strain NR-31040",64 µM
same,MIC,"[1]; read-out: Antibiotic sensibility (MIC) of clinical P. aeruginosa isolate NR-31041, strain NR-31041",64 µM
GIGKHVGKALKGLKGLLKGLGEC [ADP-1],MICb: the MIC of the peptide,P. aeruginosa PAO1; [13],16 µM
RIWVIWRR-NH2 [Bac8c],FICI,P. aeruginosa PAO1; [12],1.250
same,MICb: the MIC of the peptide,P. aeruginosa PAO1; [13],4 µM
CC[C@@H](C)[C@@H](NC(=O)[C@@H](CC(C)C)NC(=O)[C@@H](CCCNC(=N)N)NC(=O)[C@@H](Cc1c[nH]c2ccccc12)NC(=O)[C@H](N)CC(C)C)C(=O)N[C@H](CCCNC(=N)N)C(=O)N[C@H](CCCNC(=N)N)C(=O)N[C@H](Cc1ccccc1)C(=O)N[C@H](CC(C)C)C(=O)N[C@H](CCCNC(=N)N)C(=O)N[C@H](CCCNC(=N)N)C(N)=O [D-RW-BP100R] (H-[dL][dW][dR][dL][dI][dR][dR][dF][dL][dR][dR]-NH2),FICI,P. aeruginosa PAO1; [12],1.250
same,MICb: the MIC of the peptide,P. aeruginosa PAO1; [13],4 µM
KRIVQRIKKWLR-NH2 [KR-12-a2],MIC of the peptide,"P. aeruginosa PAO1; PAO1, 18 h",≥ 32 µM
same,MICb: the MIC of the peptide,"P. aeruginosa PAO1; PAO1, 18 h",32 µM
CC1=C(C(=O)O)N2C(=O)[C@@H](NC(=O)[C@H](N)c3ccccc3)[C@H]2SC1 [Cephalexin],FICI,"P. aeruginosa PAO1; S3 Table, PAO1, antibiotic + 2 μM D-11",1.063
same,FICI,"P. aeruginosa PAO1; S3 Table, PAO1, antibiotic + 4 μM D-11",1.125
RLLFRKIRRLKR [EC5],FICI,P. aeruginosa PAO1; [2],<0.125
same,FICI,P. aeruginosa PAO1; [3],<0.281
same,FICI,P. aeruginosa PAO1; [4],<0.313
same,FICI,P. aeruginosa PAO1; [5],<0.281
same,FICI,P. aeruginosa PAO1; [6],<0.313
same,FICI,P. aeruginosa PAO1; [7],<0.281
same,FICI,P. aeruginosa PAO1; [8],1.063
same,FICI,P. aeruginosa PAO1; [9],1.031
same,FICI,P. aeruginosa PAO1; [10],<0.313
same,FICI,P. aeruginosa PAO1; [11],<0.531
same,FICI,P. aeruginosa PAO1; [12],0.188
same,MICb: the MIC of the peptide,"P. aeruginosa PAO1; S1 Table, peptide alone, PAO1",> 128 µM
same,MIC of the peptide,"P. aeruginosa PAO1; peptide alone, PAO1",≥ 32 µM
same,MICb: the MIC of the peptide,P. aeruginosa PAO1; [13],> 32 µM
